The values that follow come from ChEMBL document CHEMBL1123891, “Antimalarial activity of 2-(substituted amino)-4,6-bis(trichloromethyl)-1,3,5-triazines and N-(chlorophenyl)-N'-[4-(substituted amino)-6-(trichloromethyl)-1,3,5-triazin-2-yl]guanidines” (1987).

“And” between values parts separate entries of the source, which are not always exact repeats. Identical values can stand only once.

The species entered for assay [1] is Mus musculus. Briefly: Dose required for 90% suppression of the parasitaemia in Plasmodium berghei treated mice (Mus musculus) relative to control was determined. In kind it is functional.
Assay [2] has as its system Mus musculus. Put plainly: Mean survival time was determined against Plasmodium berghei treated mice (Mus musculus) after (subcutaneously) administration of 160 mg/kg. On the set-up: unit not given beside the values. The settings on record: route subcutaneous. In kind it is functional.
Assay [3] relates to Mus musculus. Put plainly: (§1) Mean survival time was determined against Plasmodium berghei treated mice (Mus musculus) after (subcutaneously) administration of 40 mg/kg. The class given is functional. The conditions noted are these: route subcutaneous.
In assay [4] the test system is Gallus gallus. Put plainly: Mean survival time was determined against Plasmodium gallinaceum treated chicks after (subcutaneously) administration of 100 mg/kg. The settings on record: route subcutaneous. In kind it is functional.
Assay [5] concerns Mus musculus. Put plainly: Mean survival time was determined against Plasmodium berghei treated mice (Mus musculus) after (subcutaneous) administration of 640 mg/kg. In kind it is functional. On the set-up: unit not given beside the values.
The test system of assay [6] is Mus musculus. Put plainly: (§2) Mean survival time was determined against Plasmodium berghei treated mice (Mus musculus) after (subcutaneously) administration of 20 mg/kg. The class given is functional. On the set-up: unit not given beside the values. The settings on record: route subcutaneous.
Assay [7] relates to Mus musculus. The assay is described as §1. The class given is functional. The arrangement: unit not given beside the values. The conditions noted are these: route subcutaneous.
Assay [8] deals with Gallus gallus. Put plainly: Mean survival time was determined against Plasmodium gallinaceum treated chicks after (subcutaneous) administration of 120 mg/kg. The class given is functional.
The test system of assay [9] is Mus musculus. Put plainly: Mean survival time was determined against Plasmodium berghei treated mice (Mus musculus) after (subcutaneous) administration of 160 mg/kg. The class given is functional. The arrangement: unit not given beside the values.
Assay [10] concerns Mus musculus. Put plainly: (§3) Mean survival time was determined against Plasmodium berghei treated mice (Mus musculus) after (subcutaneously) administration of 80 mg/kg. In kind it is functional. On the set-up: unit not given beside the values. The settings on record: route subcutaneous.
The test system of assay [11] is Mus musculus. Briefly: Mean survival time was determined against Plasmodium berghei treated mice (Mus musculus) after (subcutaneous) administration of 320 mg/kg. The class given is functional.
The subject of assay [12] is Mus musculus. Described as §2. The class given is functional. The settings on record: route subcutaneous.
For assay [13], the system named is Gallus gallus. Briefly: Mean survival time was determined against Plasmodium gallinaceum treated chicks after (subcutaneously) administration of 120 mg/kg. The conditions noted are these: route subcutaneous. In kind it is functional.
For assay [14], the system named is Mus musculus. The assay is described as §3. In kind it is functional. The conditions noted are these: route subcutaneous.
Assay [15] relates to Mus musculus. Put plainly: (§4) Mean survival time was determined against Plasmodium berghei treated mice (Mus musculus) after (subcutaneously) administration of 320 mg/kg. In kind it is functional. The arrangement: unit not given beside the values. The settings on record: route subcutaneous.
For assay [16], the system named is Gallus gallus. Put plainly: Mean survival time was determined against Plasmodium gallinaceum treated chicks after (subcutaneously) administration of 60 mg/kg. The conditions noted are these: route subcutaneous. In kind it is functional.
The subject of assay [17] is Gallus gallus. Briefly: Mean survival time was determined against Plasmodium gallinaceum treated chicks after (subcutaneously) administration of 240 mg/kg. In kind it is functional. The settings on record: route subcutaneous.
Assay [18] deals with Gallus gallus. Briefly: Mean survival time was determined against Plasmodium gallinaceum treated chicks after (subcutaneous) administration of 240 mg/kg. In kind it is functional.
In assay [19] the test system is Mus musculus. Put plainly: Mean survival time was determined against Plasmodium berghei treated mice (Mus musculus) after (subcutaneously) administration of 640 mg/kg. The class given is functional. The conditions noted are these: route subcutaneous.
Assay [20] relates to Mus musculus. The description is as §4. In kind it is functional. The conditions noted are these: route subcutaneous.
Assay [21] has as its system Mus musculus. Put plainly: Mean survival time was determined against Plasmodium berghei treated mice (Mus musculus) after (subcutaneous) administration of 20 mg/kg.

Regarding `CN(C)CCCNc1nc(/N=C(\N)Nc2ccc(Cl)c(Cl)c2)nc(C(Cl)(Cl)Cl)n1`, the SD90 in the assay listed under Mus musculus [1] came to 100 mg/kg. For the same molecule, the “Delta MST” value in the assay on Mus musculus [2] (160 mg/kg) was 12.3 and 12.6; with Mus musculus [3] (40 mg/kg), 1.3 and 1.6; in the assay on Gallus gallus [4] it was 0.2; in the assay on Mus musculus [5] (640 mg/kg) it was 15.5 and 14.9.
Take `N=C(Nc1ccc(Cl)cc1)Nc1nc(NCCCN2CCCCC2)nc(C(Cl)(Cl)Cl)n1`: the “Delta MST” value is 0.3 in the assay with Mus musculus [6]; 1.7 and 1.5 in the assay on Mus musculus [7]; 9.1 in the assay on Gallus gallus [8]; 3.1 and 3.9 in the assay with Mus musculus [9] (160 mg/kg); 2.7 in the assay with Mus musculus [10]; 5.5 in the assay on Mus musculus [11]. In the assay on Mus musculus [5], the “Delta MST” value is 7.9 and 8.1. The SD90 in the assay listed under Mus musculus [1] was found to be 208 mg/kg.
For the molecule `ClC(Cl)(Cl)c1nc(NCCCCCN2CCCC2)nc(C(Cl)(Cl)Cl)n1`, the “Delta MST” value with Mus musculus [12] was 0; with Mus musculus [9] it was 3; in the assay with Mus musculus [2], 2.3; in the assay on Gallus gallus [13], 4.6; with Mus musculus [14], 0.4; in the assay with Mus musculus [3] (40 mg/kg), 0.4 and 0.5. In addition, the “Delta MST” value was 8.6 in the assay on Mus musculus [15] and 1.2 with Gallus gallus [16]. This molecule gave an SD90 in the assay listed under Mus musculus [1] of 34 mg/kg.
Take `N=C(Nc1ccc(Cl)cc1)Nc1nc(NCCCCCN2CCCC2)nc(C(Cl)(Cl)Cl)n1`: the “Delta MST” value is 0.6 in the assay on Mus musculus [6]; 1 and 1.2 with Mus musculus [7]; 0.7 with Gallus gallus [8]; 3.8 and 4.2 with Mus musculus [9] (160 mg/kg); 2.2 in the assay with Mus musculus [10]; 4 in the assay with Mus musculus [11]. The “Delta MST” value with Mus musculus [5] is 7.2 and 7. In the assay listed under Mus musculus [1], the SD90 was determined as 145 mg/kg.
Take `CCN1CCCC(Nc2nc(/N=C(\N)Nc3ccc(Cl)cc3)nc(C(Cl)(Cl)Cl)n2)C1` (configuration not stated): the “Delta MST” value in the assay with Mus musculus [12] was 0.3; in the assay with Mus musculus [2] (160 mg/kg), 4.7 and 2.3; in the assay on Mus musculus [14] it was 4.1; in the assay with Mus musculus [3] (40 mg/kg), 0.7 and 1.1; in the assay on Mus musculus [15], 5.3; with Mus musculus [5] (640 mg/kg) it was 10.3 and 9.9. This molecule also showed an SD90 in the assay filed under Mus musculus [1] of 97 mg/kg.
With `CCN1CCCC(Nc2nc(C(Cl)(Cl)Cl)nc(C(Cl)(Cl)Cl)n2)C1` (configuration not stated), the entries for the “Delta MST” value in the assay with Gallus gallus [17], in the assay with Mus musculus [2] and in the assay on Mus musculus [3] were 1.6, 2.8 and 0.2, respectively. Further, in the assay filed under Mus musculus [1], the SD90 was found to be 91 mg/kg.
In the case of `N=C(Nc1ccc(Cl)cc1)Nc1nc(NCCCN2CCCCCC2)nc(C(Cl)(Cl)Cl)n1`, the “Delta MST” value was 0.7 in the assay with Mus musculus [6]; 1.1 and 0.7 with Mus musculus [7]; 7.2 in the assay on Gallus gallus [18]; 2.7 and 1.5 in the assay with Mus musculus [9] (160 mg/kg); 1.7 in the assay with Mus musculus [10]; 4.5 with Mus musculus [11]. The “Delta MST” value with Gallus gallus [4] is 18.7; in the assay with Mus musculus [5], 7.5 and 4.7. Besides, in the assay filed under Mus musculus [1], the SD90 amounted to 240 mg/kg.
As to `N=C(Nc1ccc(Cl)cc1)Nc1nc(NCCCCN2CCCC2)nc(C(Cl)(Cl)Cl)n1`, the “Delta MST” value in the assay on Mus musculus [6] is 0.2; with Mus musculus [7], 0.4 and 1; in the assay on Mus musculus [9] (160 mg/kg), 3.8 and 4.8; with Mus musculus [10] it was 2.2; in the assay with Mus musculus [11], 4.8; in the assay on Mus musculus [5], 5.8 and 5.3. Besides, the SD90 in the assay listed under Mus musculus [1] came to 108 mg/kg.
As to `ClC(Cl)(Cl)c1nc(NCCCCN2CCCC2)nc(C(Cl)(Cl)Cl)n1`, the “Delta MST” value in the assay with Mus musculus [12] was 0.2; with Mus musculus [9], 2.1; with Mus musculus [2], 2.8; in the assay with Mus musculus [14], 0.4; in the assay on Mus musculus [3] (40 mg/kg), 0.2 and 0.3; in the assay on Mus musculus [15], 4.2. Besides, the “Delta MST” value with Gallus gallus [16] was determined as 0.1. In the assay listed under Mus musculus [1], this molecule registered an SD90 of 80 mg/kg.
Take `ClC(Cl)(Cl)c1nc(NCCCN2CCCC2)nc(C(Cl)(Cl)Cl)n1`: the “Delta MST” value was 0 in the assay on Mus musculus [12]; 0.3 with Gallus gallus [17]; 1 in the assay on Mus musculus [2]; 0.2 in the assay with Mus musculus [14]; 0 with Mus musculus [3]; 1.6 in the assay with Mus musculus [15]. The “Delta MST” value in the assay on Mus musculus [5] amounted to 3.8. In the assay filed under Mus musculus [1], this molecule gave an SD90 of 86 mg/kg.
Take `N=C(Nc1ccc(Cl)cc1)Nc1nc(NCCCN2CCCC2)nc(C(Cl)(Cl)Cl)n1`: the “Delta MST” value with Mus musculus [12] is 0.5; in the assay with Gallus gallus [17], 14.4; with Mus musculus [2] (160 mg/kg), 3.7 and 2.3; in the assay on Gallus gallus [13] it was 11.7; in the assay on Mus musculus [19], 10.1 and 9.9; with Mus musculus [14], 1.9. Also, the “Delta MST” value in the assay with Mus musculus [20] is 7.5; in the assay with Mus musculus [3], 0.5. Further, the SD90 in the assay listed under Mus musculus [1] was determined as 235 mg/kg.
On to `CN(C)CCCNc1nc(/N=C(\N)Nc2ccc(Cl)cc2)nc(C(Cl)(Cl)Cl)n1`, for which the “Delta MST” value was 4.2 and 4.6 with Mus musculus [7]; 5.4 and 6.5 in the assay with Mus musculus [9] (160 mg/kg).
As to `CN(C)CCCNc1nc(C(Cl)(Cl)Cl)nc(C(Cl)(Cl)Cl)n1`, the “Delta MST” value was 0.3 in the assay with Gallus gallus [17]; 1.2 in the assay on Mus musculus [21]; 4 and 4.7 with Mus musculus [2] (160 mg/kg); 2.2 in the assay on Mus musculus [14]; 2 and 2.1 with Mus musculus [3] (40 mg/kg); 6.8 in the assay on Mus musculus [15]. The “Delta MST” value with Mus musculus [5] (640 mg/kg) is 16.3 and 17.7. In the assay listed under Mus musculus [1], this molecule showed an SD90 of 125 mg/kg.
